Test results: US10925858B2, “S-nitrosoglutathione (GSNO) and GSNO reductase inhibitors for use in therapy” (MUSC FOUNDATION FOR RESEARCH DEVELOPMENT, priority 2017, dated 2021)

What was measured:
[1] = tested on: EAE mice; test: Active EAE (MOG35-55), clinical score; format: in vivo, C57BL/6 mice
Procedure: Female C57BL/6 mice of 8-12 weeks of age, purchased from Jackson Laboratory, were provided with food and water ad libitum and were kept in pathogen free animal care facility of Medical University of South Carolina (MUSC) throughout the study. […] EAE was induced as described previously (Nath et al., 2009). Briefly, mice were immunized subcutaneously in the flank regions with MOG35-55 peptide (MOG; 200 μg; Peptide International) emulsified (1:1) in 100 ul complete Freund's adjuvant (CFA) on day 0 and day 7. Additionally, 300 ng of Pertussis toxin (Sigma-Aldrich, St. Louis, Mo.) was given on day 0 and day 2 by i.p. injection. Pertussis toxin used as per the standardized protocol reported by us and other investigators for the induction of EAE (Nath et al., 2009). Similarly, healthy control group received subcutaneous injection of PBS and CFA emulsion on day 0 and day 7. Clinical signs of EAE were scored by examiners blinded to experimental treatments using the following scale: 0=no clinical signs of disease; 1=piloerection and sluggish; 2=limp tail (ataxia); 2.5=ataxia with partial hind limb paralysis; 3=full paralysis of hind limb; 3.5=full paralysis of hind limb with paralysis of one fore limb; 4=full paralysis of two limbs; 4.5=moribund stage; 5=death. […] The drug treatments were continued till the termination of the study (day 41 post immunization). EAE animals without drug treatment received PBS. Likewise, healthy controls received vehicle.
Clinical disease scores as average maximal scores over the treatment period (mean±SD) and analyzed using Kruskal-Wallis test. […] Significances (p value) between groups were determined using the Newman-Keul test. A value of p<0.05* and above was considered significant.

[2] = tested on: lymphocytes in blood; test: Total lymphocyte count in blood of normal mice (lymphopenic effect); format: in vivo, C57BL/6 mice; conditions: normal mice without EAE, 1 mg/kg/day for 19 days
Procedure: The bloods collected in EDTA blood collection tubes (BD Biosciences) were analyzed by an automated hematology analyzer for counting total lymphocytes. For counting of each subset of lymphocytes, 50 μl of blood was mixed with staining buffer (20 μl) containing fluorescence labelled antibodies and red-blood-cells were lysed with FACS lysing solution (BD Biosciences) prior to fluorescence flow-cytometric analysis. For staining of CD3+, CD4+, and CD8+ cells, allophycocvanin (APC)-labeled anti-mouse CD3 (eBioscience clone 17A2), Fluorescein isothiocyanate (FITC)-labeled anti-mouse CD4 (eBioscience clone RM4-5), APC-labeled anti-mouse CD8 (eBioscience clone 53-6.7) and appropriate isotype matched controls.

[3] = tested on: RhoA; test: RhoA activity assay in thrombin treated hBMVECs; format: cell-based, human; conditions: thrombin 0.1 unit/ml 5 min; L-NIO or FeTPPS 10 μM pretreated 30 min; GSNO or SIN-1 various concentrations pretreated 2 hr
Procedure: (§1) Cell culture: Primary human brain microvascular endothelial cells (hBMVECs) were purchased from Angio-Proteomie (Cat #: cAP-0002, Atlanta, Ga.). The cells were cultured in cell culture flasks or plates precoated with Quick Coating Solution (Angio-Proteomie; Cat #: cAP-01) and maintained in Endothelial Growth Medium (Angio-Proteomie; Cat #: cAP-02) at 37° C. under 5% CO2/95% air. When the cells were almost confluent, the medium was replaced with endothelial basal medium (Angio-Proteomie; Cat #: cAP-03) containing 0.5% fetal bovine serum (FBS; Life Technologies, Grand Island, N.Y.) about 8-12 hours before the experiment. No institutional approval was required for this study. The study was not pre-registered.
RhoA activity in hBMVECs was analyzed by RhoA Activation Assay Kit (Abeam Cat #: ab211164, Cambridge, Mass.). Briefly, following drug treatments, the cells were lysed with 1× Assay buffer provided in the kit. Lysates were centrifuged (14,000×g for 10 sec), and supernatants were incubated with agarose beads coupled to GST-Rhotekin-Rho binding domain (RBD) for 2 h at 4° C. Beads were then washed with 1× Assay buffer and GTP-bound RhoA was eluted with 2×SDS-PAGE sample buffer. Amounts of active (GTP-bound) RhoA were determined by Western blot analysis using antibody specific to RhoA (Abeam).

[4] = tested on: intracellular Ca^2+ ([Ca^2+]i) influx; test: Assay for intracellular Ca2+ influx in thrombin treated hBMVECs; format: cell-based, human; conditions: thrombin 0.1 unit/ml; L-NIO or FeTPPS 10 μM; GSNO or SIN-1 various concentrations
Procedure: as §1, with “pre-registered. Intracellular Ca^2+ concentration ([Ca^2+]i) was measured with Fluo-4 Direct Calcium Assay Kit (Thermo Fisher Scientific, Cat #: F10471, Grand Island, N.Y.). Briefly, culture medium in the 96-well plate was replaced with a Ca^2+ sensitive dye Fluo-4 in an endothelial basal medium. After 30 min incubation, the dye was removed and cells were incubated with the original medium with or without the drugs at 37° C. for 15 min. Following thrombin treatment, time course changes of fluorescent intensity were quantified using a CLARIOstar multi-well fluorometer (BMG Labtech, Cary, N.C.).” for “pre-registered.”

[5] = tested on: myosin light chain (MLC); test: Western analysis of MLC phosphorylation (Ser19) in thrombin treated hBMVECs; format: cell-based, human; conditions: thrombin 0.1 unit/ml 5 min; L-NIO or FeTPPS 10 μM; GSNO or SIN-1 various concentrations
Procedure: as §1
Western immunoblot analysis was performed by standard method using 50 μg of cell lysates. Following the SDS-PAGE electrophoresis, proteins were transferred from the gel onto the Polyvinylidene fluoride membrane (GE Healthcare Life Sciences, Marlborough, Mass.). Membranes were blocked with non-fat dry milk (Santa Cruz Biotechnology) or I-Block™ (ThermoFisher Scientific, Waltham, Mass.) for detection of phospho-proteins and incubated with primary antibodies, such as MBP (Santa Cruz Biotech Cat #: sc13914; RRID: AB_648798), phospho-(Ser^19) MLC (Abeam, Cat #: ab2480; RRID: AB_303094), MLC (Abeam, Cat #: ab79935; RRID:AB_1952220), P-actin (Santa Cruz Biotechnology, Cat #: sc-47778; RRID:AB_2714189), phospho-eNOS (Ser^1177) (Cell Signaling, Cat #: 9571; RRID: AB_329837, Danvers, Mass.), eNOS (Cell Signaling, Cat #: 32027), RhoA (Santa Cruz Biotechnology; Cat #: sc418; RRID: AB_628218) or 3-nitrotyrosine (Abeam, Cat #: ab61392; RRID: AB_942087). Following washing, the membranes were incubated with horseradish peroxidase conjugated secondary antibody (Jackson Immunoresearch Lab, West Grove, Pa.), washed and then incubated with ECL reagent (Amersham Life Science, Pittsbrugh, Pa.), and exposed to Amersham Hyperfilm ECL film

[6] = tested on: protein-associated 3-nitrotyrosine; test: Assay for protein-associated nitrotyrosine in hBMVECs; format: cell-based, human
Procedure: as §1
Cellular levels of protein-associated 3-nitrotyrosine were analyzed by ELISA Kit (Abeam, Cat #: ab116691) and Western blot analysis using antibody specific to 3-nitrotyrosine (Abeam, Cat #: ab61392). For the ELISA, hBMVECs were lysed in extraction buffer provided with the kit followed by centrifugation at 16,000×g 4° C. The cell lysate supernatants were subjected to protein quantification with Bio-Rad DC protein assay kit (Bio-Rad, Hercules, Calif.) and the equal amounts of proteins (500 μg) were loaded onto 96 well microplate coated with 3-nitrotyrosine capture antibody and followed by incubation with biotin-conjugated 3-nitrotyrosine detector antibody. Following washing, the plates were incubated with HRP-conjugated streptoavidin and the levels of 3-nitrotyrosine were measured by incubation with 3,3′,5,5′-tetramethylbenzidine solution and colorimetric analysis at […] using SpectraMax 190 Microplate Reader (Molecular Devices, Sunnyvale, Calif.). For analysis of degree of RhoA tyrosine nitration, the cell lysates were immunoprecipiated with antibody specific to 3-nitrotyrosine (Abeam) and the levels of tyrosine nitrated RhoA were analyzed by Western analysis for RhoA.

[7] = tested on: hBMVECs; test: Assay for F-actin stress fiber development in thrombin treated hBMVECs; format: cell-based, human; conditions: thrombin 0.1 unit/ml 30 min; GSNO 100 μM or SIN-1 100 μM pretreated 2 hr
Procedure: as §1
Assay for F-actin stress fiber development and endothelial cell contraction: hBMVECs were cultured on fibronectin-coated chamber slides (BD Bioscience). Following drug treatments, the cells were fixed with 4% (wt/vol) paraformaldehyde, permeabilized by the addition of 0.25% Triton X-100, and blocked by 2% bovine serum albumin (BSA) in phosphate buffered saline (PBS). […] The density of fluorescence was analyzed by ImageJ (NIH, Bethesda, Md.).

[8] = tested on: hBMVECs; test: Assay of trans-endothelial electrical resistance (TEER) in thrombin treated hBMVECs; format: cell-based, human; conditions: thrombin 0.1 unit/ml; GSNO 100 μM or SIN-1 500 μM pretreated 2 hr
Procedure: as §1, with “pre-registered. For evaluation of the endothelial barrier function, hBMVECs were plated on fibronectin-coated polycarbonate filters (Transwell system, Corning, Midland, N.C.) containing Endothelial Growth Medium (Angio-Proteomie Cat #: cAP-02). The medium was renewed every other day. Five days after seeding, the medium was replaced with Endothelial Basal Medium (Angio-Proteomie Cat #: cAP-03) containing 0.5% FBS and incubated for 2 days. Following drug treatments, transendothelial electrical resistance (TEER) was measured by EVOM2 (Word Precision Instruments) as described previously (Li et al., 2006).” for “pre-registered.”

numbers of total lymphocytes, CD3+ T cells, CD4+ T cells and CD8+ cells in blood [2]	SMILES	clinical score at the peak of disease ([1]; day 21 post immunization, 1 mg/kg/day from disease onset (GSNO oral, N6022 i.p., FTY720 oral), untreated EAE 3.5±0.5)	clinical score at the remission of disease ([1]; day 41 post immunization, 1 mg/kg/day from disease onset (GSNO oral, N6022 i.p., FTY720 oral), untreated EAE 2.5±0.5)	efficacy on EAE disease compared at the same dose ([1]; single dose comparison of N6022, GSNO and FTY720, 1 mg/kg/day)	thrombin-induced RhoA activation [3]	thrombin-induced intracellular Ca2+ influx [4]	thrombin-induced MLC phosphorylation [5]	thrombin-induced 3-nitrotyrosine levels ([6]; thrombin 0.1 unit/ml 20 min, L-NIO or FeTPPS 10 μM pretreated 30 min, ELISA)	RhoA tyrosine nitration ([6]; various concentrations, incubated 2 hr)	cellular levels of protein-associated 3-nitrotyrosine ([6]; various concentrations, incubated 2 hr, no thrombin)	thrombin-induced development of F-actin stress fiber formation [7]	thrombin-induced loss of TEER [8]
significantly reduced	CCCCCCCCc1ccc(CCC(N)(CO)CO)cc1 [FTY720]	3.0±0.87	1.67±0.58	less effective	–	–	–	–	–	–	–	–
–	CC(=N)NCCC[C@H](N)C(=O)O.Cl.Cl [L-NIO, N^5-(1-Iminoethyl)-L-omithine dihydrochloride]	–	–	–	decreased	had not effect	inhibited	attenuated	–	–	–	–
–	Cl.N=c1c[n+](N2CCOCC2)[n-]o1 [SIN-1, 3-morpholinosydnonimine chloride]	–	–	–	enhanced	enhanced	enhanced	–	increased	increased	enhanced	enhanced
